The results in this text go back to patent US20250002473A1, “QUINOXALINE DERIVED SULFONAMIDES WITH EGFR DEGRADATION ACTIVITIES AND THEIR USES THEREOF” (Accutar Biotechnology Inc., priority 2023, published 2025).

What all share (type): cell-based
The target of experiment [1] is T1, BaF3_ASV (EGFR_A776inASV) (Homo sapiens, UniProt P00533, DUP767-769).
T1 construct: expressed in transfected cells; host or cells: Ba/F3 (engineered)
The experiment is described as follows: EGFR degradation assay (western blot), BaF3_ASV cells. The note with it: Table 5; BaF3_ASV cells, 24 h; read-out: DC50 (nM), 24 h, BaF3_ASV. A digest of the protocol:
(§1)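 Cells seeded overnight, then exposed to compounds for 24 h; lysates run on western blot, EGFR probed with tubulin loading control and fluorescent secondary detection. DC50 = concentration giving 50% EGFR degradation.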
Background: In western blotting, separated proteins are transferred to a membrane and probed.

Experiment [2] relates to NCI-H292. In words: Cell growth inhibition assay (CellTiter-Glo), NCI-H292. Particulars: Homo sapiens; Table 7; NCI-H292 cells; head prints 24 h. The procedure:
(§2) Cells were seeded in a 96-well plate (Corning 3610) with 90 μL of culture medium per well, and plates were incubated at 37° C. overnight. A 1,000× DMSO stock solution of the desired compound was prepared the following day. A compound dilution plate was prepared by diluting the stock solution 1:100 in the corresponding cell culture medium, 10 μL of the diluted compound solution was added to each 96-well plate well containing the seeded cells. […] The content of the wells was mixed by shaking continuously for 10 min, and luminescence was measured using Envision (PerkinElmer). The data were analyzed with GraphPad Prism 9 (see FIG. 50).
(§3) Table 6, Table 7, and Table 8 list the cell growth inhibition results, where Gls0 represents the compound concentration to cause 50% cell growth inhibition in comparison with DMSO.

Experiment [3] has as its system BaF3_DTC (EGFR_Exon19del/T790M/C797S). In words: EGFR degradation assay (western blot), BaF3_DTC cells. Particulars: Table 5; BaF3_Del19/T790M/C797S cells, 24 h; read-out: DC50 (nM), 24 h, BaF3_Del19/T790M/C797S. In outline: as §1
Experiment [4] concerns A431. In words: Cell growth inhibition assay (CellTiter-Glo), A431. The note with it: Homo sapiens, A-431, 24 h, Table 7; A431 cells; head prints 24 h; read-out: GI50 (nM), 24 h, A431. A digest of the protocol: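 Cells were plated in 96-well plates (Corning 3610) at 90 μL of culture medium per well and incubated overnight at 37° C. The next day, a 1,000× DMSO compound stock was diluted 1:100 in cell culture medium, and 10 μL was added per well. After shaking for 10 min, luminescence was read on an Envision (PerkinElmer) reader.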
(In general: In ATP-based viability assays light output follows the ATP content of the culture.)

In experiment [5] the test system is BaF3_ASV. The experiment is described as follows: Cell growth inhibition assay (CellTiter-Glo), BaF3_ASV. Particulars: Table 7; BaF3_ASV cells; head prints 24 h; read-out: GI50 (nM), 24 h, BaF3_ASV.
Experiment [6] deals with BaF3_YVMA. The experiment is described as follows: Cell growth inhibition assay (CellTiter-Glo), BaF3_YVMA. The note with it: Table 7; BaF3_YVMA cells; head prints 24 h. The procedure:
as §2, §3

Experiment [7] addresses T2, BaF3_SVD (EGFR_D770insSVD) (Homo sapiens, UniProt P00533, INS770SVD).
T2 construct: expressed in transfected cells; host or cells: Ba/F3 (engineered)
The experiment is described as follows: EGFR degradation assay (western blot), BaF3_SVD cells. The note with it: Table 5; BaF3_SVD cells, 24 h. The procedure:
(§4) A431 (EGFR_WT), NCl-H2073 (EGFR_WT), NCl-H292 (EGFR_WT), BaF3_YVAM (Her2_A775insYVAM), BaF3_SVD (EGFR_D770insSVD), BaF3_ASV (EGFR_A776inASV), or BaF3_DTC (EGFR_Exon19del/T790M/C797S) cells were seeded in a 24-well plate at a density of 4×10^5 cells per well for EGFR WT cells and 8× cells per well for EGFR or Her2 mutant cells, and the plates were incubated overnight. The cells were treated with the desired compounds for 24 h. The culture medium was removed, and 100 μL of RIPA buffer (Beyotime, P0013B) containing 1% Protease Inhibitor Cocktail (Bimake, B14001), 1% Phosphatase Inhibitor Cocktail 2 (Sigma, P5726), and 1% Phosphatase Inhibitor Cocktail 3 (Sigma, P0044) were added to lyse the cells. Then, the cell lysates were transferred to 1.5 mL microcentrifuge tubes and centrifuged at 12,000 rpm and 4° C. for 30 min. The supernatants were transferred into new tubes, and the protein concentration was determined using the BCA protein quantification method. All samples were diluted to the same concentration using RIPA buffer, loading buffer was added, samples were denatured, and 15 μg of protein per lane was loaded onto a SurePAGE 4-20% Bis-Tris gel. Samples were separated via electrophoresis in MOPS running buffer at 180 V for 100 min. Then, proteins were transferred onto PVDF membranes using the MiniBlot™ Electrophoretic Transfer Cell Device (Beyotime, E6050). The membrane was blocked using block buffer (LI-COR 927-60001) to prevent non-specific binding. The membrane was incubated with primary antibodies (1:500 dilution, EGFR-CST4405, 1:2000 dilution, Tubulin-ABclonal #AC021) at 4° C. overnight. The membrane was washed three times with 1× TBST buffer for 15 min each. The membrane was incubated with secondary antibodies IRDye 680RD Goat anti-Rabbit IgG Secondary Antibody (1:2000 dilution, LI-COR 926-68071) and IRDye 800CW Goat anti-Mouse IgG Secondary Antibody (1:2000 dilution, LI-COR 926-32210). […] Fluorescence was detected using the Odyssey CLx Imaging System, and the data were analyzed with Empiria Studio Software and GraphPad Prism 9. […]

Experiment [8] has as its system BaF3_DTC. In words: Cell growth inhibition assay (CellTiter-Glo), BaF3_DTC. Particulars: Table 7; BaF3_Del19/T790M/C797S cells; head prints 24 h; read-out: GI50 (nM), 24 h, BaF3_Del19/T790M/C797S.
Experiment [9] has as its target T3, A431 (EGFR_WT) (Homo sapiens, UniProt P00533).
T3 construct: endogenous in cells; host or cells: A431, NCI-H2073, NCI-H292
The experiment is described as follows: EGFR degradation assay (western blot), A431 cells. Particulars: Table 5, 24 h, read-out: DC50 (nM), 24 h, A431. The method, then:
A431 (EGFR_WT), NCl-H2073 (EGFR_WT), NCl-H292 (EGFR_WT), BaF3_YVAM (Her2_A775insYVAM), BaF3_SVD (EGFR_D770insSVD), BaF3_ASV (EGFR_A776inASV), or BaF3_DTC (EGFR_Exon19del/T790M/C797S) cells were seeded in a 24-well plate at a density of 4×10^5 cells per well for EGFR WT cells and 8× cells per well for EGFR or Her2 mutant cells, and the plates were incubated overnight. The cells were treated with the desired compounds for 24 h. The culture medium was removed, and 100 μL of RIPA buffer (Beyotime, P0013B) containing 1% Protease Inhibitor Cocktail (Bimake, B14001), 1% Phosphatase Inhibitor Cocktail 2 (Sigma, P5726), and 1% Phosphatase Inhibitor Cocktail 3 (Sigma, P0044) were added to lyse the cells. Then, the cell lysates were transferred to 1.5 mL microcentrifuge tubes and centrifuged at 12,000 rpm and 4° C. for 30 min. The supernatants were transferred into new tubes, and the protein concentration was determined using the BCA protein quantification method. All samples were diluted to the same concentration using RIPA buffer, loading buffer was added, samples were denatured, and 15 μg of protein per lane was loaded onto a SurePAGE 4-20% Bis-Tris gel. Samples were separated via electrophoresis in MOPS running buffer at 180 V for 100 min. Then, proteins were transferred onto PVDF membranes using the MiniBlot™ Electrophoretic Transfer Cell Device (Beyotime, E6050). The membrane was blocked using block buffer (LI-COR 927-60001) to prevent non-specific binding. The membrane was incubated with primary antibodies (1:500 dilution, EGFR-CST4405, 1:2000 dilution, Tubulin-ABclonal #AC021) at 4° C. overnight. The membrane was washed three times with 1× TBST buffer for 15 min each. The membrane was incubated with secondary antibodies IRDye 680RD Goat anti-Rabbit IgG Secondary Antibody (1:2000 dilution, LI-COR 926-68071) and IRDye 800CW Goat anti-Mouse IgG Secondary Antibody (1:2000 dilution, LI-COR 926-32210). Finally, the membrane was washed again with 1× TBST buffer 3 times. Fluorescence was detected using the Odyssey CLx Imaging System, and the data were analyzed with Empiria Studio Software and GraphPad Prism 9. Table 4 and Table 5 list the degradation results, where the degradation potency is represented by DC50, the concentration of compounds to cause the degradation of 50% of the corresponding proteins. FIGS. 45-49 show western blots illustrating the EGFR degradative activity of exemplary Compound of the present disclosure and a comparator Compound A in different cell lines 24 h after administration. The Compound referred herein as Compound A is disclosed in WO 2022/171123 A1 (see, compound 133, page 46; published Aug. 18, 2022). WO 2022/171123 A1 discloses phosphine oxide derived molecules with EGFR degradation activity.

The target of experiment [10] is T4, NCl-H2073 (EGFR_WT) (Homo sapiens, UniProt P00533).
T4 construct: endogenous in cells; host or cells: A431, NCI-H2073, NCI-H292
T4 sequence (P00533 25-1210): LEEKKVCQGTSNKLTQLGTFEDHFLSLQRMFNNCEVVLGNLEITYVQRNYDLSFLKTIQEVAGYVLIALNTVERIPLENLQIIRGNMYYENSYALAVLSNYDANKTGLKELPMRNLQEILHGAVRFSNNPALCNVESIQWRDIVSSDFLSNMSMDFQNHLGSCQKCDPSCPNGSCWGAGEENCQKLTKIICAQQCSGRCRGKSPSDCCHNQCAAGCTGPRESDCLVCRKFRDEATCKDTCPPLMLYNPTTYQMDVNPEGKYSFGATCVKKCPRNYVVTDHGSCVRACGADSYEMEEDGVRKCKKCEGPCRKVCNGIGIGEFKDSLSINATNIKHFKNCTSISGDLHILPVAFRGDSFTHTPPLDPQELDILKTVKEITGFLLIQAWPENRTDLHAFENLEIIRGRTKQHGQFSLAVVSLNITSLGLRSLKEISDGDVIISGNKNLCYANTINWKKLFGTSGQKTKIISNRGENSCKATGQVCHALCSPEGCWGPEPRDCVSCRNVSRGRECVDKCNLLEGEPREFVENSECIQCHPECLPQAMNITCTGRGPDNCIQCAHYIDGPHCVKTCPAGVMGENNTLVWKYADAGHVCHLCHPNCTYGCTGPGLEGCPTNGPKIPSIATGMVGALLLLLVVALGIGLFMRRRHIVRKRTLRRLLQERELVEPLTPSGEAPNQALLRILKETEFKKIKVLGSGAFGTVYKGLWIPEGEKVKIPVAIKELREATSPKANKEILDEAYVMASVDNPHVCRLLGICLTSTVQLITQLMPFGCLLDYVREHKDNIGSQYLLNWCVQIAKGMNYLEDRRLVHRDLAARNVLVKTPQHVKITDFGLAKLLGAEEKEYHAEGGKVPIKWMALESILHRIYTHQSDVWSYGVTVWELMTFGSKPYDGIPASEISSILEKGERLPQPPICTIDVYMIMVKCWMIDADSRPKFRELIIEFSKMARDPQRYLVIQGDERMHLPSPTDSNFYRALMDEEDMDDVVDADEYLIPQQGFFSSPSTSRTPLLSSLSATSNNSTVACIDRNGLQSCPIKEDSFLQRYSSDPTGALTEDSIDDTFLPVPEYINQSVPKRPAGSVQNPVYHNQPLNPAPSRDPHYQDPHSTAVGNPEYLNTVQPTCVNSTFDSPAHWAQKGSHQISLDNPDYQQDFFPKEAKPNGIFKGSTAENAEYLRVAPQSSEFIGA
The experiment is described as follows: EGFR degradation assay (western blot), NCl-H2073 cells. Particulars: Table 5; NCI-H2073 cells (EGFR_WT), 24 h. The method, then:
as §4, with “min.” for “min. Then, proteins were transferred onto PVDF membranes using the MiniBlot™ Electrophoretic Transfer Cell Device (Beyotime, E6050). The membrane was blocked using block buffer (LI-COR 927-60001) to prevent non-specific binding. The membrane was incubated with primary antibodies (1:500 dilution, EGFR-CST4405, 1:2000 dilution, Tubulin-ABclonal #AC021) at 4° C. overnight. The membrane was washed three times with 1× TBST buffer for 15 min each. The membrane was incubated with secondary antibodies IRDye 680RD Goat anti-Rabbit IgG Secondary Antibody (1:2000 dilution, LI-COR 926-68071) and IRDye 800CW Goat anti-Mouse IgG Secondary Antibody (1:2000 dilution, LI-COR 926-32210).”

For experiment [11], the system named is BaF3_SVD. In words: Cell growth inhibition assay (CellTiter-Glo), BaF3_SVD. The note with it: Table 7; BaF3_SVD cells. The procedure:
Cells were seeded in a 96-well plate (Corning 3610) with 90 μL of culture medium per well, and plates were incubated at 37° C. overnight. A 1,000× DMSO stock solution of the desired compound was prepared the following day. A compound dilution plate was prepared by diluting the stock solution 1:100 in the corresponding cell culture medium, 10 μL of the diluted compound solution was added to each 96-well plate well containing the seeded cells. Then, the cells were cultured at 37° C. for three days following compound treatment, 100 μL of CellTiter-Glo reagents (Promega G7573) was added to each well of the 96-well plate. The content of the wells was mixed by shaking continuously for 10 min, and luminescence was measured using Envision (PerkinElmer). The data were analyzed with GraphPad Prism 9 (see FIG. 50).
as §3

The target in experiment [12] is T5, BaF3_YVAM (Her2_A775insYVAM) (Homo sapiens, UniProt P04626, INS775YVMA).
T5 construct: expressed in transfected cells; host or cells: Ba/F3 (engineered)
In words: EGFR degradation assay (western blot), BaF3_YVAM cells. Particulars: Table 5; BaF3_YVMA cells (mutant Her2), 24 h. The method, then:
as §4

Experiment [13] has as its target T6, NCl-H292 (EGFR_WT) (Homo sapiens, UniProt P00533).
T6 construct: endogenous in cells; host or cells: A431, NCI-H2073, NCI-H292
The experiment is described as follows: EGFR degradation assay (western blot), NCl-H292 cells. The note with it: Table 5; NCI-H292 cells (EGFR_WT), 24 h. The procedure: as §4, with “min.” for “min. Then, proteins were transferred onto PVDF membranes using the MiniBlot™ Electrophoretic Transfer Cell Device (Beyotime, E6050). The membrane was blocked using block buffer (LI-COR 927-60001) to prevent non-specific binding. The membrane was incubated with primary antibodies (1:500 dilution, EGFR-CST4405, 1:2000 dilution, Tubulin-ABclonal #AC021) at 4° C. overnight. The membrane was washed three times with 1× TBST buffer for 15 min each. The membrane was incubated with secondary antibodies IRDye 680RD Goat anti-Rabbit IgG Secondary Antibody (1:2000 dilution, LI-COR 926-68071) and IRDye 800CW Goat anti-Mouse IgG Secondary Antibody (1:2000 dilution, LI-COR 926-32210).”

The structures appear in SMILES notation.

T6 sequence (P00533 25-1210): as above
T3 sequence (P00533 25-1210): as above
T2 sequence (P00533 with tags, fused parts or gaps INS770SVD): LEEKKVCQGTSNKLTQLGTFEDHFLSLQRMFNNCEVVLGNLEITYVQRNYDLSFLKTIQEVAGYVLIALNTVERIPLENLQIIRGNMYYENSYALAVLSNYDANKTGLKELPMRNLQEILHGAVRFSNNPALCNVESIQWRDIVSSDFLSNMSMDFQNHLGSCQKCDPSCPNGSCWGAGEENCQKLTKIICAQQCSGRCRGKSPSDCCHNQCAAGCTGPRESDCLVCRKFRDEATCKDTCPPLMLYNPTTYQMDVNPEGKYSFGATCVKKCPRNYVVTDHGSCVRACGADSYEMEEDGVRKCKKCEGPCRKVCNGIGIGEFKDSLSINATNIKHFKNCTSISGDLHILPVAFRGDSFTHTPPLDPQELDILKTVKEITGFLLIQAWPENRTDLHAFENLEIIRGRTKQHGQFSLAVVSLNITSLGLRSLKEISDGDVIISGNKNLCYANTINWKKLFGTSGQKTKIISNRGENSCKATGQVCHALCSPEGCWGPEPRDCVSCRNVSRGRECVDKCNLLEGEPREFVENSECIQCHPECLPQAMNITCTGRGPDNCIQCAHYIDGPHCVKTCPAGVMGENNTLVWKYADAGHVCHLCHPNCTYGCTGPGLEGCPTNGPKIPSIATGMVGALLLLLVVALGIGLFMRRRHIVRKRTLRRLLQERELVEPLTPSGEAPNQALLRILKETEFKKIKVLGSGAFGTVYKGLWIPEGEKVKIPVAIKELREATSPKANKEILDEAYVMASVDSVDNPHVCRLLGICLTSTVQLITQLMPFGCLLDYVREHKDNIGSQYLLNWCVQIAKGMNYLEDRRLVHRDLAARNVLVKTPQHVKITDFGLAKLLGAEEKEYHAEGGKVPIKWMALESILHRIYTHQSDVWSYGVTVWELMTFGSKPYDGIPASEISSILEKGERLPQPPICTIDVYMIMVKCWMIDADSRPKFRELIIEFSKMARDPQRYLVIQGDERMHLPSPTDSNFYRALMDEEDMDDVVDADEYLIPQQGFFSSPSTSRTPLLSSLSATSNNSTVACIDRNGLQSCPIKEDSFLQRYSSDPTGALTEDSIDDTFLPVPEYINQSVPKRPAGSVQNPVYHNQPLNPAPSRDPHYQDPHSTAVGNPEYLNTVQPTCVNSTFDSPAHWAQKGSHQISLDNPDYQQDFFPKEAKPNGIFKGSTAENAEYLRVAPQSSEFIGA

In the case of `CCc1cc(Nc2ncc(Br)c(Nc3cnc4ccccc4c3P(C)(C)=O)n2)c(OC)cc1N1CCC(N2CCN(CCc3cccc4c3n(CC)c(=O)n4C3CCC(=O)NC3=O)CC2)CC1` (stereo not shown) [Compound A, reference compound], the DC50 in [1] is 109 nM; in [3], 0.622 nM; in [7], 280 nM; in experiment [9], > 1000 nM; in experiment [10], > 1000 nM; in experiment [12], > 1000 nM. For the same molecule, the DC50 in experiment [13] is > 1000 nM. In addition, the GI50 was > 3000 nM in experiment [2]; > 3000 nM in [4]; 824 nM in experiment [5]; 2630 nM in [6]; 8.57 nM in experiment [8]; 2340 nM in experiment [11].
